Data reported in patent US7262212B2, “2,3-dihydro-6-nitroimidazo[2,1-b]oxazoles” (Otsuka Pharmaceutical Co., Ltd., priority 2002, dated 2007).

melting point | SMILES
172 to 174 °C | C[C@]1(COC(=O)N2CCCc3cc(Cl)ccc32)Cn2cc([N+](=O)[O-])nc2O1
126.8 to 127.9 °C | CC1(COc2ccc(OC(F)(F)F)cc2)Cn2cc([N+](=O)[O-])nc2O1 (centres unmarked)
172 to 175 °C | C[C@]1(COc2ccc(-n3ccnc3)cc2)Cn2cc([N+](=O)[O-])nc2O1
208.2 to 211.5 °C | CCOC(=O)C1CCN(c2ccc(OC[C@@]3(C)Cn4cc([N+](=O)[O-])nc4O3)cc2)CC1
240 to 245 °C (dec.) | O=C(Nc1ccc(N2CCOCC2)c(F)c1)N1CCC2(CC1)Cn1cc([N+](=O)[O-])nc1O2
227.5 to 228.3 °C (dec.) | CC(C)(C)OC(=O)N1CCC(c2ccc(OC[C@@]3(C)Cn4cc([N+](=O)[O-])nc4O3)cc2)CC1
180 to 181.5 °C | C[C@]1(CN2CCN(C3CCN(c4ccc(OC(F)(F)F)cc4)CC3)CC2)Cn2cc([N+](=O)[O-])nc2O1
226 to 228 °C | C[C@]1(CN2CCC(N3CCN(c4ccc(Cl)cc4)CC3)CC2)Cn2cc([N+](=O)[O-])nc2O1
142 to 143 °C | C[C@]1(CN2CCC(N3CCN(Cc4ccc(OC(F)(F)F)cc4)CC3)CC2)Cn2cc([N+](=O)[O-])nc2O1
137 to 138 °C | C[C@]1(CN2CCC(N3CCN(C(=O)c4ccc(OC(F)(F)F)cc4)CC3)CC2)Cn2cc([N+](=O)[O-])nc2O1
140 to 141 °C | C[C@]1(CN2CCN(C3CCN(Cc4ccc(OC(F)(F)F)cc4)CC3)CC2)Cn2cc([N+](=O)[O-])nc2O1
205.5 to 207 °C | C[C@]1(COc2ccc(N3CCN(Cc4ccc(C(F)(F)F)cc4)CC3)cc2)Cn2cc([N+](=O)[O-])nc2O1
151 to 152.3 °C | CC1(COc2ccc(N3CCC(Oc4ccc(Cl)cc4)CC3)cc2)Cn2cc([N+](=O)[O-])nc2O1 (centres unmarked)
168.5 to 172 °C | C[C@]1(COc2ccc(C(=O)N3CCN(C(=O)OCc4ccc(OC(F)(F)F)cc4)CC3)cc2)Cn2cc([N+](=O)[O-])nc2O1
213.5 to 217 °C | C[C@]1(COc2ccc(N3CCN(Cc4ccc(OC(F)(F)F)cc4)CC3)cc2)Cn2cc([N+](=O)[O-])nc2O1
129 to 129.5 °C | CN(Cc1ccc(Cl)cc1)C[C@@]1(C)Cn2cc([N+](=O)[O-])nc2O1
182.3 to 184.4 °C | CC1(CNC(=O)OCc2ccc(OC(F)(F)F)cc2)Cn2cc([N+](=O)[O-])nc2O1 (centres unmarked)
127.2 to 129.7 °C | CNC(C1CCN(c2ccc(OC(F)(F)F)cc2)CC1)[C@]1(C)Cn2cc([N+](=O)[O-])nc2O1 (some centres unmarked)
131.5 to 133.6 °C | CNC(C1CCN(c2ccc(C(F)(F)F)cc2)CC1)[C@]1(C)Cn2cc([N+](=O)[O-])nc2O1 (some centres unmarked)
116.2 to 116.6 °C | CNC(C1CCN(C(=O)OCc2ccc(Cl)cc2)CC1)[C@]1(C)Cn2cc([N+](=O)[O-])nc2O1 (some centres unmarked)
113 to 114 °C | CC1(CN2CCC(Oc3ccc(C(F)(F)F)cc3)CC2)Cn2cc([N+](=O)[O-])nc2O1 (centres unmarked)
198.8 to 201.1 °C | CN(C(=O)OC(C)(C)C)C1CCN(CC2(C)Cn3cc([N+](=O)[O-])nc3O2)CC1 (centres unmarked)
172 to 174 °C | CC1(CN2CCC(C(=O)c3ccc(C(F)(F)F)cc3)CC2)Cn2cc([N+](=O)[O-])nc2O1 (centres unmarked)
206.8 to 208.6 °C | CC(C)(C)OC(=O)N(CCc1ccc(C(F)(F)F)cc1)C1CCN(C[C@@]2(C)Cn3cc([N+](=O)[O-])nc3O2)CC1
91.3 to 92.7 °C | C[C@]1(CN2CCC(OCC=Cc3ccccc3)CC2)Cn2cc([N+](=O)[O-])nc2O1
134.4 to 136.9 °C | C[C@]1(CN2CCC(NC(=O)OC3CCN(c4ccc(C(F)(F)F)cc4)CC3)CC2)Cn2cc([N+](=O)[O-])nc2O1

melting point | SMILES
136.8 to 139.9 °C | C[C@]1(CN2CCC(NC(=O)Nc3ccc(C(F)(F)F)cc3)CC2)Cn2cc([N+](=O)[O-])nc2O1
80.7 to 84.2 °C | C[C@]1(CN2CCC(NCCc3ccc(C(F)(F)F)cc3)CC2)Cn2cc([N+](=O)[O-])nc2O1
223 to 227.8 °C | CC1(CN2CCN(c3ccc(-c4ccccc4)cc3)CC2)Cn2cc([N+](=O)[O-])nc2O1 (centres unmarked)
196.6 to 197.3 °C | CC1(CN2CCN(c3ccc(Cl)cc3)CC2)Cn2cc([N+](=O)[O-])nc2O1 (centres unmarked)
130.5 to 132.1 °C | CC1(CN2CCN(C(=O)OCc3ccccc3)CC2)Cn2cc([N+](=O)[O-])nc2O1 (centres unmarked)
183 to 185 °C (dec.) | O=[N+]([O-])c1cn2c(n1)OC(CN1CCN(Cc3ccc(-c4ccccc4)cc3)CC1)C2 (centres unmarked)
154 to 156 °C | CC1(CCCN2CCN(Cc3ccc(C(F)(F)F)cc3)CC2)Cn2cc([N+](=O)[O-])nc2O1 (centres unmarked)
181 to 182 °C | CC1(CCN2CCN(Cc3ccc(-c4ccccc4)cc3)CC2)Cn2cc([N+](=O)[O-])nc2O1 (centres unmarked)
81 to 85 °C | CC1(CN2CCN(C(=O)Oc3ccccc3)CC2)Cn2cc([N+](=O)[O-])nc2O1 (centres unmarked)
216.5 to 218.5 °C | CC1(CN2CCN(C(=O)NC3CCCCC3)CC2)Cn2cc([N+](=O)[O-])nc2O1 (centres unmarked)
164 to 165 °C (dec.) | CC1(CN2CCN(C(=S)Nc3ccccc3)CC2)Cn2cc([N+](=O)[O-])nc2O1 (centres unmarked)
172 to 174.4 °C | CC1(CCCN2CCN(c3nc4ccccc4o3)CC2)Cn2cc([N+](=O)[O-])nc2O1 (centres unmarked)
218 to 219.6 °C | C[C@]1(CN2CCN(c3ccc(Cl)cc3)CC2)Cn2cc([N+](=O)[O-])nc2O1
178.5 to 179.5 °C | O=[N+]([O-])c1cn2c(n1)O[C@@H](CN1CCN(c3ccc(F)cc3)CC1)C2
132 to 133 °C | C[C@]1(CN2CCN(C(=O)OCC=Cc3ccc(C(F)(F)F)cc3)CC2)Cn2cc([N+](=O)[O-])nc2O1
141 to 143 °C | O=[N+]([O-])c1cn2c(n1)O[C@H](CN1CCN(Cc3ccc(C(F)(F)F)cc3)CC1)C2
166.8 to 169.1 °C | CC1(CN2CCN(C(=O)CCc3ccccc3)CC2)Cn2cc([N+](=O)[O-])nc2O1 (centres unmarked)
213 to 214 °C | Cc1ccc(CC(=O)N2CCN(CC3(C)Cn4cc([N+](=O)[O-])nc4O3)CC2)cc1 (centres unmarked)
204 to 207 °C | CN(C)c1ccc(C(=O)N2CCN(CC3(C)Cn4cc([N+](=O)[O-])nc4O3)CC2)cc1 (centres unmarked)
189 to 190 °C | CN1C(=O)CCc2cc(COC(=O)N3CCN(C[C@@]4(C)Cn5cc([N+](=O)[O-])nc5O4)CC3)ccc21
136 to 138 °C | C[C@]1(CN2CCN(C(=O)OCC=Cc3cccc(C(F)(F)F)c3)CC2)Cn2cc([N+](=O)[O-])nc2O1.O=C(O)/C=C\C(=O)O
167 to 169 °C | C[C@@]1(CN2CCN(C(=O)OCc3ccc(F)cc3)CC2)Cn2cc([N+](=O)[O-])nc2O1
222 to 224 °C | CC1(CN2CCN(C(=O)Nc3ccc(Cl)c(C(F)(F)F)c3)CC2)Cn2cc([N+](=O)[O-])nc2O1 (centres unmarked)
212 to 214 °C (dec.) | CC1(CN2CCN(C(=O)Nc3ccc(Cl)c(Cl)c3)CC2)Cn2cc([N+](=O)[O-])nc2O1 (centres unmarked)
150 to 152.5 °C | C[C@]1(CN2CCN(C(=O)Nc3ccc(C(F)(F)F)cc3)CC2)Cn2cc([N+](=O)[O-])nc2O1
185.5 to 187.5 °C | COc1ccc(NC(=O)N2CCN(C[C@@]3(C)Cn4cc([N+](=O)[O-])nc4O3)CC2)cc1

melting point | SMILES
101 to 103.6 °C | C[C@]1(CN2CCN(C(=O)NCc3ccc(C(F)(F)F)cc3)CC2)Cn2cc([N+](=O)[O-])nc2O1
163 to 166 °C | CC1(CSc2nc3ccccc3o2)Cn2cc([N+](=O)[O-])nc2O1 (centres unmarked)
156 to 159 °C | C[C@]1(CN2CCN(C(=O)N3C=CC(c4ccc(Cl)cc4)=CC3)CC2)Cn2cc([N+](=O)[O-])nc2O1
174 to 175 °C | CC1(CCSc2nc3ccccc3o2)Cn2cc([N+](=O)[O-])nc2O1 (centres unmarked)
192.1 to 195.3 °C | C[C@]1(CN2CCN(Nc3ccc(C(F)(F)F)cc3)CC2)Cn2cc([N+](=O)[O-])nc2O1
213.8 to 215.7 °C | C[C@]1(CN2CCN(N=Cc3cc4cc(Cl)ccc4o3)CC2)Cn2cc([N+](=O)[O-])nc2O1
140 to 147 °C | CC1(CSc2nnnn2-c2ccccc2)Cn2cc([N+](=O)[O-])nc2O1 (centres unmarked)
64 to 66 °C | CC1(Cn2nc(COc3ccc(Cl)cc3)oc2=O)Cn2cc([N+](=O)[O-])nc2O1 (centres unmarked)
261.9 to 265.4 °C (dec.) | Cn1c(=O)n(CC2(C)Cn3cc([N+](=O)[O-])nc3O2)c2cc(Cl)ccc21 (centres unmarked)
264.6 to 268.3 °C (dec.) | CN(C)c1ccc2c(c1)n(CC1(C)Cn3cc([N+](=O)[O-])nc3O1)c(=O)n2C (centres unmarked)
180.2 to 180.9 °C | CC1(CN2CCN(Cc3ccccc3)C2=O)Cn2cc([N+](=O)[O-])nc2O1 (centres unmarked)
182.5 to 183.3 °C | CC1(CN2CCN(Cc3ccc(F)cc3)C2=O)Cn2cc([N+](=O)[O-])nc2O1 (centres unmarked)
158.6 to 160.5 °C | COc1ccc(CN2CCN(CC3(C)Cn4cc([N+](=O)[O-])nc4O3)C2=O)cc1 (centres unmarked)
124 to 126 °C | CC1(CN2CCC(=O)CC2)Cn2cc([N+](=O)[O-])nc2O1 (centres unmarked)
245.5 to 247.8 °C | CC1(Cn2ccnc2)Cn2cc([N+](=O)[O-])nc2O1 (centres unmarked)
230 to 232 °C | CC(C)(C)OC(=O)N1CCC2(CC1)Cn1cc([N+](=O)[O-])nc1O2
249.2 to 250.1 °C | O=[N+]([O-])c1cn2c(n1)OC1(CCN(c3ccc(C(F)(F)F)cc3)CC1)C2
226 to 230 °C (dec.) | O=C(N1CCN(Cc2ccc(C(F)(F)F)cc2)CC1)N1CCC2(CC1)Cn1cc([N+](=O)[O-])nc1O2
215 to 217 °C | O=C(NCc1ccc(C(F)(F)F)cc1)N1CCC2(CC1)Cn1cc([N+](=O)[O-])nc1O2
223 to 225 °C | O=C(NCc1ccc(OC(F)(F)F)cc1)N1CCC2(CC1)Cn1cc([N+](=O)[O-])nc1O2
123 to 124 °C | CN(Cc1ccc(OC(F)(F)F)cc1)C(=O)OC[C@@]1(C)Cn2cc([N+](=O)[O-])nc2O1
175 to 177 °C | C[C@]1(COC(=O)N(c2ccc(Cl)cc2)C2CCCCC2)Cn2cc([N+](=O)[O-])nc2O1
144 to 145 °C | CN(C(=O)OC[C@@]1(C)Cn2cc([N+](=O)[O-])nc2O1)c1ccc(OC(F)(F)F)cc1
152 to 154 °C | CC1(COC(=O)N2CCCCC2)Cn2cc([N+](=O)[O-])nc2O1 (centres unmarked)
138 to 140 °C | CC1(COC(=O)N2CCN(c3ccc(OC(F)(F)F)cc3)CC2)Cn2cc([N+](=O)[O-])nc2O1 (centres unmarked)
